Results: US20130296311A1, “INHIBITORS OF HCV NS5A” (PRESIDIO PHARMACEUTICALS, INC., priority 2010, published 2013)

system: HCV 1b_Huh-Luc/Neo-ET cell line persistently expressing a bicistronic genotype 1b replicon in Huh 7 cells; assay: HCV replicon assay (luciferase readout, 72 h); type: cell-based, HCV genotype 1b; conditions: Hepatitis C virus, Huh-7, 72 h, read-out: Inhibition of HCV genotype 1b
Protocol: Biological activity of the compounds of the invention was determined using an HCV replicon assay. The HCV 1b_Huh-Luc/Neo-ET cell line persistently expressing a bicistronic genotype 1b replicon in Huh 7 cells was obtained from ReBLikon GMBH. This cell line was used to test compound inhibition using luciferase enzyme activity readout as a measurement of compound inhibition of replicon levels.
On Day 1 (the day after plating), each compound is added in triplicate to the cells. Plates incubated for 72 h prior to running the luciferase assay. Enzyme activity was measured using a Bright-Glo Kit (cat. number E2620) manufactured by Promega Corporation. The following equation was used to generate a percent control value for each compound.
% Control=(Average Compound Value/Average Control)*100
The EC50 value was determined using GraphPad Prism and the following equation:
Y=Bottom+(Top-Bottom)/(1+10̂((LogIC50−X)*HillSlope))
EC50 values of compounds are determined several times in the replicon assay.
Example compounds of the disclosed invention are illustrated in Tables 1-16 attached as appendices. The tables show inhibitory activity of many of the example compounds with respect to HCV 1b. […] The tables further provide mass spectrometry results for the synthesized example compounds.

Structure (SMILES)	EC50
COC(=O)N[C@H](Cc1ccccc1)C(=O)N1CCC[C@H]1c1ncc(-c2ccc(C#Cc3ccc(-c4cnc([C@@H]5CCCN5C(=O)[C@H](NC(=O)OC)c5ccccc5)[nH]4)cc3)cc2)[nH]1 [Compound 180]	< 1 nM
COC(=O)N[C@H](C(=O)N1CCC[C@H]1c1ncc(-c2ccc(C#Cc3ccc4nc([C@@H]5CCCN5C(=O)[C@@H](NC(=O)OC)[C@H](C)O)[nH]c4c3)cc2)[nH]1)[C@H](C)O [Compound 1031]	< 1 nM
COC(=O)N[C@@H](C(=O)N1CCC[C@H]1c1ncc(-c2ccc(C#Cc3ccc(-c4cnc([C@@H]5CCCN5C(=O)[C@H](NC(=O)N5CCCC5)c5ccccc5)[nH]4)cc3)cc2)[nH]1)c1ccccc1 [Compound 243]	< 1 nM
COC(=O)N[C@@H](C(=O)N[C@@H](C)c1ncc(-c2ccc(C#Cc3ccc(-c4cnc([C@H](C)NC(=O)[C@H](NC(=O)OC)C(C)C)[nH]4)cc3)cc2)[nH]1)C(C)C [Compound 950]	< 1 nM
COC(=O)N[C@H](C(=O)N1CCC[C@H]1c1ncc(-c2ccc(C#Cc3ccc(-c4cnc([C@@H]5CCCN5C(=O)[C@@H](NC(=O)OC)C(C)(C)O)[nH]4)cc3)cc2)[nH]1)C(C)(C)O [Compound 993]	< 1 nM
COC(=O)NCC(=O)N1CCC[C@H]1c1ncc(-c2ccc(C#Cc3ccc4nc([C@@H]5CCCN5C(=O)CNC(=O)OC)[nH]c4c3)cc2)[nH]1 [Compound 1049]	10 to 999 nM
COC(=O)N[C@@H](C(=O)N1CCC[C@H]1c1ncc(-c2ccc(C#Cc3ccc(-c4cnc([C@@H]5CCCN5C(=O)[C@H](NC(=O)N5CCC[C@@H](O)C5)c5ccccc5)[nH]4)cc3)cc2)[nH]1)c1ccccc1 [Compound 264]	< 1 nM
COC(=O)N[C@@H](C(=O)N1CCC[C@H]1c1ncc(-c2ccc(C#Cc3ccc(-c4cnc([C@@H]5CCCN5C(=O)[C@H](C)c5ccccc5)[nH]4)cc3)cc2)[nH]1)c1ccccc1 [Compound 256]	< 1 nM
O=C(N[C@@H](C(=O)N1CCC[C@H]1c1ncc(-c2ccc(C#Cc3ccc(-c4cnc([C@@H]5CCCN5C(=O)[C@H](NC(=O)N5CC[C@@H](O)C5)c5ccccc5)[nH]4)cc3)cc2)[nH]1)c1ccccc1)N1CC[C@@H](O)C1 [Compound 252]	< 1 nM
COC(=O)N[C@H](C(=O)N[C@@H](C)c1ncc(-c2ccc(C#Cc3ccc4nc([C@H](C)NC(=O)[C@@H](NC(=O)OC)C(C)C)[nH]c4c3)cc2)[nH]1)C(C)C [Compound 868]	< 1 nM
COC(=O)N[C@H](C(=O)N1CCC[C@H]1c1ncc(-c2ccc(C#Cc3ccc(-c4cnc([C@@H]5CCCN5C(=O)[C@H](NC(=O)N5CC[C@H](O)C5)c5ccccc5)[nH]4)cc3)cc2)[nH]1)C(C)C [Compound 974]	< 1 nM
COC(=O)N[C@H](C(=O)N[C@@H](C)c1ncc(-c2ccc(C#Cc3ccc(-c4cnc([C@H](C)NC(=O)[C@@H](NC(=O)OC)[C@@H](C)OC)[nH]4)cc3)cc2)[nH]1)[C@@H](C)OC [Compound 952]	1 to 9.9 nM
COC(=O)N[C@@H](C(=O)N1CCC[C@H]1c1ncc(C#Cc2ccc(C#Cc3cnc([C@@H]4CCCN4C(=O)[C@@H](c4ccccc4)N4CCCCC4)[nH]3)cc2)[nH]1)c1ccccc1 [Compound 312]	< 1 nM
COC(=O)N[C@@H](C(=O)N1CCC[C@H]1c1cc(-c2ccc(C#Cc3ccc(-c4cnc([C@@H]5CCCN5C(=O)[C@H](NC(=O)OC)c5ccccc5)[nH]4)cc3)cc2)n[nH]1)c1ccccc1 [Compound 219]	< 1 nM
COC(=O)N[C@@H](C(=O)N1CCC[C@H]1c1ncc(C#Cc2ccc(-c3cnc([C@@H]4CCCN4C(=O)[C@@H](c4ccccc4)N(C)C)[nH]3)cc2)[nH]1)c1ccccc1 [Compound 123]	< 1 nM
COC(=O)N[C@@H](C(=O)N1CCC[C@H]1c1ncc(-c2ccc(C#Cc3ccc(-c4cnc([C@@H]5CCCN5C(=O)[C@H](NC(=O)N5CC[C@H](OC)C5)c5ccccc5)[nH]4)cc3)cc2)[nH]1)c1ccccc1 [Compound 272]	< 1 nM
O=C(Cc1cccnc1)N[C@@H](C(=O)N1CCC[C@H]1c1cc(-c2ccc(C#Cc3ccc(-c4cnc([C@@H]5CCCN5C(=O)[C@H](NC(=O)Cc5cccnc5)c5ccccc5)[nH]4)cc3)cc2)n[nH]1)c1ccccc1 [Compound 222]	< 1 nM
C[C@H]1OC(=O)N(C)[C@@H]1C(=O)N1CCC[C@H]1c1ncc(-c2ccc(C#Cc3ccc(-c4cnc([C@@H]5CCCN5C(=O)[C@@H]5[C@@H](C)OC(=O)N5C)[nH]4)cc3)cc2)[nH]1 [Compound 980]	10 to 999 nM
CC(C)(C)OC(=O)N[C@@H](C(=O)N1CCC[C@H]1c1ncc(C#Cc2ccc(C#Cc3cnc([C@@H]4CCCN4C(=O)[C@H](NC(=O)OC(C)(C)C)c4ccccc4)[nH]3)cc2)[nH]1)c1ccccc1 [Compound 300]	< 1 nM
COC(=O)N[C@@H](C(=O)N1CCC[C@H]1c1ncc(-c2ccc(C#Cc3ccc(-c4cnc([C@@H]5CCCN5C(=O)[C@H](NC(=O)N5CCC[C@H](O)C5)c5ccccc5)[nH]4)cc3)cc2)[nH]1)c1ccccc1 [Compound 263]	< 1 nM
COC(=O)N[C@H](C(=O)N1CCC[C@H]1c1ncc(C#Cc2ccc(-c3ccc4nc([C@@H]5CCCN5C(=O)[C@@H](NC(=O)OC)C(C)C)[nH]c4c3)cc2)[nH]1)C(C)C [Compound 1084]	< 1 nM
O=C(N[C@@H](C(=O)N1CCC[C@H]1c1nc(-c2ccc3cc(C#Cc4cnc([C@@H]5CCCN5C(=O)[C@H](NC(=O)N5CC[C@@H](O)C5)c5ccccc5)[nH]4)ccc3c2)c[nH]1)c1ccccc1)N1CC[C@@H](O)C1 [Compound 807]	1 to 9.9 nM
COC(=O)N[C@H](C(=O)N1CCC[C@H]1c1ncc(-c2ccc(C#Cc3ccc4nc([C@@H]5CCCN5C(=O)[C@@H](NC(=O)OC)C5CCCC5)[nH]c4c3)cc2)[nH]1)C1CCCC1 [Compound 1025]	< 1 nM
O=C([C@H](O)c1ccccc1)N1CCC[C@H]1c1ncc(-c2ccc(C#Cc3ccc(-c4cnc([C@@H]5CCCN5C(=O)[C@H](O)c5ccccc5)[nH]4)cc3)cc2)[nH]1 [Compound 157]	< 1 nM
COC(=O)N[C@@H](C(=O)N1CCC[C@H]1c1ncc(-c2ccc(C#Cc3ccc(-c4cnc([C@@H]5CCCN5C(=O)c5nccn5C)[nH]4)cc3)cc2)[nH]1)c1ccccc1 [Compound 176]	< 1 nM

same assay, conditions: Hepatitis C virus, Huh-7, read-out: Inhibition of HCV genotype 1b

Structure (SMILES)	EC50
COC(=O)N[C@H](C(=O)N1CCC[C@H]1c1nc(C)c(C#Cc2ccc3cc(-c4cnc([C@@H]5CCCN5C(=O)[C@@H](NC(=O)OC)[C@@H](C)OC)[nH]4)ccc3c2)[nH]1)C(C)C [Compound 1264]	< 1 nM
COC(=O)N[C@H](C(=O)N1CCC[C@H]1c1nc(C#N)c(C#Cc2ccc3cc(-c4cnc([C@@H]5CCCN5C(=O)[C@@H](NC(=O)OC)[C@@H](C)OC)[nH]4)ccc3c2)[nH]1)C(C)C [Compound 1268]	< 1 nM
COC(=O)N[C@H](C(=O)N1CCC[C@H]1c1ncc(-c2ccc(C#Cc3ccc4nc([C@@H]5CCCN5C(=O)[C@@H](NC(=O)OC)[C@@H](C)OC)[nH]c4c3)cc2)[nH]1)C(C)C [Compound 1242]	< 1 nM
COC(=O)N[C@H](C(=O)N1CCC[C@H]1c1ncc(-c2ccc(C#Cc3ccc(-c4cnc([C@@H]5CCCN5C(=O)[C@H](NC(=O)OC)c5cccs5)[nH]4)cc3)cc2)[nH]1)[C@@H](C)OC [Compound 1213]	< 1 nM
COC(=O)N[C@H](C(=O)N1CCC[C@H]1c1ncc(-c2ccc3cc(C#Cc4[nH]c([C@@H]5CCCN5C(=O)[C@@H](NC(=O)OC)[C@@H](C)OC)nc4C(F)(F)F)ccc3c2)[nH]1)C(C)C [Compound 1258]	< 1 nM
